Values joined by “and” are separate entries in the source; they are usually repeats but may differ in a detail not shown here. Identical values can stand only once.
Test system: C. elegans
Assay: Fat-reducing effect on C. elegans (Nile red lipid staining, fluorescence)
Type: in vivo
Settings: for Fat Reduction (%) vs. Control: vs NG medium; for effectiveness in reducing the lipid level relative to Orlistat as reference: specific concentrations, summary statement
Description: Plates with a diameter of 100×15 mm have been filled with NGM (Nematode Growth Medium, as standard, hereafter NG medium (Fisher Scientific). Nile red (Sigma, St. Louis, MO, USA) was added to the solid surface of the NGM plates seeded at a final concentration of 0.05 μg/mL
For each of the experiments 2 NG medium plates were used, which had been supplemented with 2′-fucosyllactose in different amounts each, i.e. […] As negative control two plates with NG medium were used. As positive control two NG medium plates with Orlistat® were used.
60 synchronized worms at young adult stage were added to each plate with Escherichia coli strain OP50 as a food source and cultured under aerobic conditions at 20° C.
All worms were subjected to a lipid staining method, following the protocol previously described (Martorell et al., 2016).
All nematodes from each plate were transferred to M9 buffer and the fluorescence was measured using a FP-8300 system (JASCO Analytical Instrument, Easton, MD, USA). Fat deposition in worms was determined by one-way ANOVA test, using a Tukey's multiple comparison post-test.
Results are given as the mean±standard deviation. The statistical analyses were performed with GraphPad Prism 9 software. Statistical significance is indicated at 5%. […]

| Compound | Fat Reduction (%) vs. Control (0.01 mg/L in NG medium) | Fat Reduction (%) vs. Control (0.1 mg/L in NG medium) | Fat Reduction (%) vs. Control (1 mg/L in NG medium) | fat reduction compared to negative control conditions (NG medium) (1 mg/mL) | effectiveness relative to the positive control orlistat (1 mg/ml) | Fat Reduction (%) vs. Control (10 mg/L in NG medium) | fat reduction compared to negative control conditions (NG medium) (10 mg/mL) | effectiveness relative to the positive control orlistat (10 mg/ml) | Fat Reduction (%) vs. Control (30 mg/L in NG medium) | effectiveness in reducing the lipid level relative to Orlistat as reference | effect on fat content in nematodes (the lower and higher doses) | Fat Reduction (%) vs. Control (6 μg/mL in NG medium, positive control) | Fat Reduction (%) vs. Control (6 μg/mL in NG medium, positive control, listed as Orlistate) | Fat Reduction (%) vs. Control (6 μg/mL in NG medium, positive control, listed as orlistat) |
| --- | --- | --- | --- | --- | --- | --- | --- | --- | --- | --- | --- | --- | --- | --- |
| 2′-fucosyllactose [2′-FL] | −2.38% | 11.37% | 23.61% | 23.6% | about 78% | 25.35% | 25.3% | ~83% | 5.28% | 70-90% | no functional effect |  |  |  |
| CC(=O)N[C@H]1[C@H](O[C@H]2[C@@H](O)[C@@H](CO)O[C@@H](O[C@H]3[C@H](O)[C@@H](O)C(O)O[C@@H]3CO)[C@@H]2O)O[C@H](CO)[C@@H](O[C@@H]2O[C@H](CO)[C@H](O)[C@H](O)[C@H]2O)[C@@H]1O (mixture of isomers) [LNnT, Lacto-N-neotetraose] | −5.01% | −0.08% | 3.08% |  |  | 14.05% | 14.05% | about 45% | −2.39% | 40-60% |  |  |  |  |
| CCCCCCCCCCC[C@@H](C[C@@H]1OC(=O)[C@H]1CCCCCC)OC(=O)[C@H](CC(C)C)NC=O [Orlistat, (25)-2-Formylamino-4-methylpentansäure-(1S)-1-{[(35,4S)-3-hexyl-2-oxo-4-oxetanyl]methyl}dodecylester, reference compound] |  |  |  |  |  |  |  |  |  |  |  | 31.14% and 30.40% | 31.14% | 30.4% |

— patent US20250127803A1, “2'-FUCOSYLLACTOSE AND LACTO-N-NEOTETRAOSE FOR PREVENTING AND TREATING OVERWEIGHT” (HEALTH AND HAPPINESS (H&H) HONG KONG LTD, priority 2022, published 2025)
